Experiment [1] has as its target GDP-bound HRAS wild-type protein (Homo sapiens, UniProt P01112). In words: Binding to HRAS by surface plasmon resonance (SPR), Single Cycle Kinetics. The following applies: for HRAS/KRAS (ratio of KD for GDP-bound HRAS wild-type to KD for KRAS) / HRAS/KRAS (ratio of KD value for HRAS to KD value for KRAS): SPR; for HRAS/KRAS (ratio of KD value for HRAS to KD value for KRAS): GDP-bound HRAS wild-type vs GDP-bound KRAS wild-type.

In experiment [2] the target is GDP-bound NRAS wild-type protein (Homo sapiens, UniProt P01111). In words: Binding to NRAS by surface plasmon resonance (SPR), Single Cycle Kinetics. The following applies: for NRAS/KRAS (ratio of KD for GDP-bound NRAS wild-type to KD for KRAS) / NRAS/KRAS (ratio of KD value for NRAS to KD value for KRAS): SPR; for NRAS/KRAS (ratio of KD value for NRAS to KD value for KRAS): GDP-bound NRAS wild-type vs GDP-bound KRAS wild-type.

*1 amine or outer side, *2 acyl side, *3 side chain or, on linkers, in order; H or OH if unused. Where a SMILES comes first, the peptide text is derived from it. Bridges are numbered along the chain shown (N, C = ends). [ ]: non-standard residue; d: D form. The star is where a group is joined. hPhe(3-Cl-4-CF3) = N[C@@H](CCc1ccc(C(F)(F)F)c(Cl)c1)C(=O)O; X35 = Cc1ccc(C[C@@H](C(=O)[*:2])N(CCC(C)(C)C)[*:1])cc1; NPrPhe(4-CF3) = CCCN[C@@H](Cc1ccc(C(F)(F)F)cc1)C(=O)O; NMeGly(cPent) = CN[C@H](C(=O)O)C1CCCC1; Pro(4,4-F2) = O=C(O)[C@@H]1CC(F)(F)CN1; NMeD = CN[C@@H](CC(=O)O)C(=O)O; NMeL = CN[C@@H](CC(C)C)C(=O)O; Morpholide = C1CN(*)CCO1; NMeA = CN[C@@H](C)C(=O)O; Ac5c = NC1(C(=O)O)CCCC1; Aze = O=C(O)[C@@H]1CCN1; Sar = CNCC(=O)O

Chain of GDP-bound HRAS wild-type protein (P01112 whole entry): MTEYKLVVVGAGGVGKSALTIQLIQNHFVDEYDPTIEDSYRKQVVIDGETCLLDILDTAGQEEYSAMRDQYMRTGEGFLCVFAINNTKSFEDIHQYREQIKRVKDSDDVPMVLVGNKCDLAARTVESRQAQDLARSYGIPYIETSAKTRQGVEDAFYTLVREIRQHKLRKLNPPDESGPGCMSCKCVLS
Chain of GDP-bound NRAS wild-type protein (P01111 whole entry): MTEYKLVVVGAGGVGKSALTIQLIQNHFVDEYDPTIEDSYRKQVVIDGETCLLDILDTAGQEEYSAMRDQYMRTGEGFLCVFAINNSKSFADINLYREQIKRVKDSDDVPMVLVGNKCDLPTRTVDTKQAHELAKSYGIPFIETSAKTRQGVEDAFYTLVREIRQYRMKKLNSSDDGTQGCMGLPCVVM

As to `CC[C@H](C)[C@@H]1NC(=O)[C@H](CC(C)C)N(C)C(=O)C[C@@H](C(=O)N2CCOCC2)N(C)C(=O)[C@H](C2CCCC2)N(C)C(=O)C2(CCCC2)NC(=O)[C@@H]2CCCN2C(=O)[C@H](CCc2ccc(C(F)(F)F)c(Cl)c2)NC(=O)CN(C)C(=O)[C@H](Cc2ccc(C)cc2)N(CCC(C)(C)C)C(=O)[C@@H]2CCN2C(=O)[C@H](C)N(C)C1=O` [PP0087] ([NMeL]I[NMeA][Aze][X35][Sar][hPhe(3-Cl-4-CF3)]P[Ac5c][NMeGly(cPent)][NMeD]-Morpholide; lactam N-11), the “HRAS/KRAS (ratio of KD for GDP-bound HRAS wild-type to KD for KRAS)” value in experiment [1] (KD ratio HRAS/KRAS) is “C (A compound having a KD ratio of 0.1 or more and less than 3 is denoted as C)”. Further, the “NRAS/KRAS (ratio of KD for GDP-bound NRAS wild-type to KD for KRAS)” value in experiment [2] (KD ratio NRAS/KRAS) was “C (A compound having a KD ratio of 0.1 or more and less than 3 is denoted as C)”.

Regarding `CCO[C@@H]1C[C@H]2C(=O)NC3(CCC3)C(=O)N(C)[C@@H](C3CCCC3)C(=O)N(C)[C@H](C(=O)N(CC)CC)CC(=O)N(C)[C@@H](CC(C)C)C(=O)N[C@@H]([C@@H](C)CC)C(=O)N(C)CC(=O)N(C)[C@H]3C/C=C\CCN(C3=O)[C@@H](Cc3ccc(C)cc3)C(=O)N(C)CC(=O)N[C@@H](CCc3ccc(C(F)(F)F)c(OC)c3)C(=O)N2C1` [PP1887], the “HRAS/KRAS (ratio of KD value for HRAS to KD value for KRAS)” value in experiment [1] is “B (a compound having 3 or more and less than 10 is denoted as B)”. In addition, the “NRAS/KRAS (ratio of KD value for NRAS to KD value for KRAS)” value in experiment [2] is “A (a compound having 10 or more and less than 20 is denoted as A)”.

In the case of `CCC[C@H]1C(=O)N[C@@H]([C@@H](C)CC)C(=O)N(C)CC(=O)N(C)[C@H]2C/C=C\CCN(C2=O)[C@@H](Cc2ccc(C(F)(F)F)cc2)C(=O)N(C)CC(=O)N[C@@H](CCc2ccc(C(F)(F)F)c(OC)c2)C(=O)N2C[C@H](OCC)C[C@H]2C(=O)NC2(CC(C)(C)C2)C(=O)N(C)[C@@H](CC2CCC2)C(=O)N(C)[C@H](C(=O)N(C)C)CC(=O)N1C` [PP2764], the “HRAS/KRAS (ratio of KD value with respect to GDP-bound HRAS wild-type protein to KD value with respect to KRAS)” value in experiment [1] (KD ratio HRAS/KRAS, class symbols) is “A (a compound having 10 or more and less than 20 is denoted as A)”. Moreover, the “NRAS/KRAS (ratio of KD value with respect to GDP-bound NRAS wild-type protein to KD value with respect to KRAS)” value in experiment [2] (KD ratio NRAS/KRAS, class symbols) was “A (a compound having 10 or more and less than 20 is denoted as A)”.

On to `CCCN1C(=O)CN(C)C(=O)CN(C)C(=O)[C@H]([C@@H](C)CC)NC(=O)[C@H](CC(C)C)N(C)C(=O)C[C@@H](C(=O)N2CCOCC2)NC(=O)[C@H](C2CCCC2)N(C)C(=O)C2(CCCC2)NC(=O)[C@@H]2CC(F)(F)CN2C(=O)[C@H](CCc2ccc(C(F)(F)F)c(Cl)c2)NC(=O)CN(C)C(=O)[C@@H]1Cc1ccc(C(F)(F)F)cc1` [PP0321] ([NMeL]I[Sar][Sar][NPrPhe(4-CF3)][Sar][hPhe(3-Cl-4-CF3)][Pro(4,4-F2)][Ac5c][NMeGly(cPent)]D-Morpholide; lactam N-11), for which the “HRAS/KRAS (ratio of KD for GDP-bound HRAS wild-type to KD for KRAS)” value in experiment [1] (KD ratio HRAS/KRAS) was “B (a compound having 3 or more and less than 10 is denoted as B)”. For the same molecule, the “NRAS/KRAS (ratio of KD for GDP-bound NRAS wild-type to KD for KRAS)” value in experiment [2] (KD ratio NRAS/KRAS) is “B (a compound having 3 or more and less than 10 is denoted as B)”.

Consider `CCO[C@@H]1C[C@H]2C(=O)NC3(CC(C)(C)C3)C(=O)N(C)[C@@H](C3CCCC3)C(=O)N(C)[C@H](C(=O)N(C)C)CC(=O)N(C)[C@H]3CCCC/C=C/c4ccc(cc4)C[C@@H](C(=O)N(C)CC(=O)N[C@@H](CCc4ccc(C(F)(F)F)c(OC)c4)C(=O)N2C1)N1CC/C=C\C[C@@H](C1=O)N(C)C(=O)CN(C)C(=O)[C@H]([C@@H](C)CC)NC3=O` [PP1832], for which, in experiment [1], the “HRAS/KRAS (ratio of KD value for HRAS to KD value for KRAS)” value is “B (a compound having 3 or more and less than 10 is denoted as B)”. In experiment [2], the “NRAS/KRAS (ratio of KD value for NRAS to KD value for KRAS)” value is “B (a compound having 3 or more and less than 10 is denoted as B)”.

Consider `CCC[C@H]1C(=O)N[C@@H]([C@@H](C)CC)C(=O)N(C)CC(=O)N(C)[C@H]2C/C=C\CCN(C2=O)[C@@H](Cc2ccc(C(F)(F)F)cc2)C(=O)N(C)CC(=O)N[C@@H](CCc2cc(F)c(C(F)(F)F)c(F)c2)C(=O)N2C[C@@H](C)C[C@H]2C(=O)NC2(CC(C)(C)C2)C(=O)N(C)[C@@H](C2CCCC2)C(=O)N(C)[C@H](C(=O)N(C)C)CC(=O)N1C` [PP1683], for which the “HRAS/KRAS (ratio of KD value for HRAS to KD value for KRAS)” value in experiment [1] is “A (a compound having 10 or more and less than 20 is denoted as A)”. Further, the “NRAS/KRAS (ratio of KD value for NRAS to KD value for KRAS)” value in experiment [2] is “A (a compound having 10 or more and less than 20 is denoted as A)”.

(Values after US20250230193A1, “CYCLIC COMPOUND HAVING SELECTIVE KRAS INHIBITORY EFFECT ON HRAS AND NRAS” (CHUGAI SEIYAKU KABUSHIKI KAISHA, priority 2022, published 2025).)
